Some test systems named below: LXFL 529 NSCLC; M19-MEL melanoma; RXF-631 renal; XF 498 CNS; HOP-18 NSCLC; SNB-78 CNS.
Holding throughout (experiment): DTP human tumour cell line panel, 48 h

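Step 1: Grow cells in 96-well plates. Step 2: Expose to compound for 48 hours at 5 concentrations. Step 3: Interpolate endpoints linearly; if unreached, use highest concentration. TGI marks complete inhibition of growth.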

In general, TGI refers to the concentration giving total growth inhibition. Read a high TGI as less potent growth arrest. In the case of `O=C(N[C@H](CO)[C@H](O)c1ccc([N+](=O)[O-])cc1)C(Cl)Cl`, the TGI in the assay on LXFL 529 NSCLC and in the assay on M19-MEL melanoma was more than 100 µM throughout.

In the case of `O=C(Nc1ccc(C(F)(F)F)cc1[N+](=O)[O-])C(=O)Nn1c(=S)[nH]c2ccccc2c1=O`, the TGI in the assay with RXF-631 renal, with XF 498 CNS, in the assay on HOP-18 NSCLC, with M19-MEL melanoma and in the assay with SNB-78 CNS was more than 100 µM each time.

In the case of `Nc1nc(N)c(N=Nc2ccccc2)c(=O)[nH]1`, the TGI in the assay on XF 498 CNS is more than 100 µM; in the assay with HOP-18 NSCLC, more than 100 µM; in the assay with M19-MEL melanoma, more than 100 µM; with SNB-78 CNS it was 71.4 µM.

Values taken from PubChem BioAssay (NCI).
